# Values quoted from earlier work as cited in patent US9421238B2 (priority 2013, dated 2016).
# Where two headings read alike, the source gives them in different places.
# Conditions: rat, CO-60 in liver
smiles,measurement,setting,value
"N[C@@H](CCC(=O)N[C@@H](CS)C(=O)NCC(=O)O)C(=O)O [Plain glutathione, glutathione]",removal of toxin,intravenous administration,64%
same,removal of toxin,oral administration,0%
same,toxin remained/remaining,oral administration,100%
